According to patent US11203598B2, “Compounds for repressing cancer cell growth” (Institute For Cancer Research, priority 2018, dated 2021):

Assays:
[1] = system: p53 reporter (PG13-luc) in HCT116 p53-null cells; experiment: luciferase-based p53-reporter activity assay; assay type: cell-based, human; settings: 3 and 24 hours
Experimental: (§1) High-throughput screening was performed using a non-invasive bioluminescence imaging in human colorectal cancer cell lines that stably express a p53-regulated luciferase reporter. Cells were seeded in 96-well plates (Greiner Bio-One) at a density of 1×10^4 cells per well. p53 transcriptional activity was imaged using an IVIS imaging system for a period of 3-4 hours.
(§2) Cell-based screening of p53 transcriptional activity for small molecule CB002 was accomplished using noninvasive bioluminescence imaging in human colorectal cancer cell lines SW480, DLD-1, DLD-1 p73^−/−, HCT116, and HCT116 p53^−/−. These cell lines stably express a p53 reporter, PG13-luc. Cells were seeded in opaque 96-well culture at a density of 5×10^4 cells/well. The cells were treated with CB002 at ranging doses with DMSO controls. Bioluminescence in cells was imaged for p53 transcriptional activity at 2 hours and 24 hours using IVIS imaging system (Xenogen).
(§3) In order to identify small molecules that could restore the p53 signaling pathway, 50,000 small molecules from the Chembridge Library were screened using a firefly luciferase human p53 reporter assay system. SW480 colorectal cancer cells that stably express the human p53 reporter were treated with compounds at various concentrations from 0-100 μM for 2 and 24 hours. […] To further validate the effects of CB002, the screening was expanded by testing effects on p53-dependent reporter activity in DLD-1, wild-type HCT116, and p53-null colorectal cancer HCT116 cell lines. […] Referring to FIG. 1, representative images of luciferase-based p53-reporter activity assays are shown at 3 hours (Panel A). Quantification of the luciferase-based p53-reporter activity assays in three different cell lines incubated from 3-24 hours with CB002 are shown (Panels B-D). p53-reporter activity assays are shown at 2 hours for HCT116 p53-null cells (Panel E).

[2] = system: p53 reporter (PG13-luc) in wild-type HCT116 cells; experiment: luciferase-based p53-reporter activity assay; assay type: cell-based, human; settings: 3 and 24 hours
Experimental: as §1, §2, §3

[3] = system: p53 reporter (PG13-luc) in DLD-1 cells; experiment: luciferase-based p53-reporter activity assay; assay type: cell-based, human; settings: 3 and 24 hours
Experimental: as §1, §2, §3

[4] = biological target: T1, mutant p53 in SW480 cells (Homo sapiens, UniProt P04637, P309S/R273H); experiment: cycloheximide chase assay; assay type: cell-based; settings: 24 hours treatment, then 100 μg/mL cycloheximide, 0-10 hours
T1 construct: endogenous in cells; host or cells: SW480 colorectal cancer cells
Experimental: (§4) As mutant p53 can acquire a gain-of-function activity, targeting mutant p53 for degradation has been explored as a therapeutic strategy. To investigate the capability of CB002 to impact on mutant p53 protein expression, Western blot analysis was used. […] To confirm these findings, a cycloheximide chase assay was performed. Cells were treated with vehicle control or CB002 for a period of 24 hours. Subsequently, 100 μg/mL cycloheximide was added to the wells and protein lysates were collected at different time points between 0-10 hours. […] Referring to FIG. 6, experiments with SW480 cells (Panels A and B) and analysis of DLD-1 colorectal cancer cells (Panel C) are shown. Cells were treated for a 24 hour period with DMSO, CB002 or positive control followed by 100 μg/mL of cycloheximide addition, and protein stability was evaluated in a time course ranging from 0-10 hours. Histone deacetylase inhibitor, SAHA and Hsp90 inhibitor Geldanamycin (1 μM GA) were used as positive controls.

[5] = biological target: T2, mutant p53 in DLD-1 cells (Homo sapiens, UniProt P04637, S241F); experiment: cycloheximide chase assay; assay type: cell-based; settings: 24 hours treatment, then 100 μg/mL cycloheximide, 0-10 hours
T2 construct: endogenous in cells; host or cells: DLD-1 colorectal cancer cells
Experimental: as §4

[6] = system: WI38 normal lung fibroblasts; experiment: CellTiter-Glo luminescent cell viability assay; assay type: cell-based, human; settings: 72 hours
Experimental: (§5) Cells were seeded in 96-well plates at a density of 5×10^3 cells per well. 20 μL of CellTiter-Glo® Reagent was added directly to the wells, following the manufacturer's protocol, and bioluminescence signal was determined using an IVIS imaging system.
Cell lines at a concentration of 4×10^3 cells/well were seeded out on an opaque 96-well plate and treated with CB002 and Analog 11 in ranging doses starting from 200 μmol/L with DMSO controls. At 72 hours after treatment, cells were mixed with 30 μL Cell Titer-Glo reagent and after ten minutes of room temperature incubation were imaged using IVIS imaging system (Xenogen).
(§6) To begin establishing the potential of CB002 as a candidate therapeutic agent, its therapeutic index was determined by treating cancer (DLD-1, SW480, and RXF393) and normal (WI38 and MRC5) cell lines with concentrations of CB002 ranging from 0-500 μM for a period of 72 hours and assessing cell viability by the CellTiter-Glo® luminescence assay (see, FIG. 2). CB002 has a significant therapeutic index among the cells tested.

[7] = system: normal (WI38 and MRC5) cell lines; experiment: CellTiter-Glo cell viability, normal cell lines (summary); assay type: cell-based; settings: Homo sapiens; 72 hours
Experimental: as §5, §6

DLD-1 p73kd cells = experiment: CellTiter-Glo luminescent cell viability assay; assay type: cell-based; settings: Homo sapiens, 72 hours, GraphPad
Experimental: as §5, §6

DLD-1 cells = experiment: CellTiter-Glo luminescent cell viability assay; assay type: cell-based; settings: Homo sapiens; DLD-1, 72 hours, GraphPad
Experimental: as §5, §6

[8] = biological target: T3, R175H mutant p53 in HCT116 R175H p53 cells (Homo sapiens, UniProt P04637, R175H); experiment: cycloheximide chase assay; assay type: cell-based; settings: 100 μM, 24 hours, then cycloheximide
T3 construct: V5 (only from the vector name pLenti6/V5); host or cells: HCT116 p53-/- cells, lentivirus infection, blasticidin-selected pooled clones
Experimental: as §4
Referring to FIG. 7, CB002 reduced the protein expression of the exogenous R175H mutant in HCT116 p53-null cells and not the HCT116 wild-type p53 cells (Panel A). HCT116 R175H p53 cells were treated for 24 hours with DMSO or CB002 followed by 100 μg/mL cycloheximide addition. Protein stability was evaluated from 0-10 hours (Panel B). […]

In the case of `Cn1c(=O)c2[nH]c(Nc3ccccc3)nc2n(C)c1=O` [CB002, 8-anilino-1,3-dimethyl-3,7-dihydro-1H-purine-2,6-dione], the p53 reporter activity [1] is reported as “induced in a dose-dependent manner”, the p53 reporter activity [2] is reported as “induced in a dose-dependent manner” and the p53 reporter activity [3] is reported as “induced in a dose-dependent manner”. For the same molecule, the “mutant p53 stability” value [4] was “did not affect mutant p53 stability”, the “mutant p53 stability” value [5] was “did not affect mutant p53 stability” and the “IC50 in Wi38 cells compared with colorectal cancer cells” value ([6]; versus SW480, DLD-1, HCT116 and HCT116 p53-null) was “much higher”. The IC50 ([6]; Homo sapiens, WI-38, WI38 (normal), GraphPad) was 642 µM, the IC50 [7] was roughly 650 µM and the IC50 (DLD-1 p73kd cells) was 240 µM. For the same molecule, the IC50 (DLD-1 cells) was 161 µM and the “stability of mutant p53” value [8] was “decreased the stability of mutant p53”.
